Assay results: patent publication US12582632B2, “Inhibition of neurological injuries due to infections via administration of Butanetap and analogs thereof” (priority 2021, dated 2026)

Legend:
[1] = Plasma and brain levels in mice by dose; assay type: in vivo
Description: The doses are provided in mg/kg; mg dose for a 70 kg human; plasma levels in mice and humans (ng/ml); plasma levels in humans (nM); brain levels in mice and humans (ng/gram); oral human efficacious and safe dose (mg/day); IP/P human efficacious and safe dose (mg/day); and IV human efficacious and safe dose (mg/day).

[2] = Phase 1 single and multiple ascending dose safety, tolerance, pharmacokinetic studies in healthy volunteers; assay type: in vivo, human; conditions: Phase I pharmacokinetic analyses
Description: (§1) Three Phase I clinical studies have established butanetap's safety. […] Therefore, we conclude that a much lower single daily butanetap dose would be effective in the proposed study.

[3] = system: APP, Tau, αSYN and inflammatory markers in CSF; experiment: MCI subjects proof of mechanism study, CSF markers before and after 10 days; assay type: in vivo, human
Description: as §1

[4] = Efficacious concentration in tissue culture; assay type: cell-based
[5] = system: aSYN in SH-SY-5Y human neuroblastoma cells; experiment: alpha-synuclein in vitro, Western blot; assay type: cell-based; conditions: 0, 0.1, 1, 5 and 10 μM, FIG. 5
Experimental: • A. FIG. 5, alpha-synuclein in vitro. […] On the left is a Western blot showing butanetap inhibition of aSYN in relation to Actin standard at concentrations of 0, 0.1, 1, 5 and 10 μM and on the right a graph showing the same data plotted for statistical analysis purposes. • B. FIG. 6, alpha-synuclein brain in vivo. […] The animals were only treated for 2 weeks, so in brain it takes butanetap only 2 weeks to lower levels of alpha-synuclein. • C. FIG. 7, alpha-synuclein in gut in vivo. Gut levels of aSYN following treatment of PD A53T mice with 10 mg/kg for 21 weeks and 21 days reduced αSYN levels in the gut as shown by Western Blot.

αSYN = assay type: in vivo, mice; conditions: 50 and 65 mg/kg for 21 days, FIG. 6
[6] = system: immortalized neuroblastoma (SH-SY5Y) cells; experiment: Gingipain cytotoxicity on neuroblastoma cells, AlamarBlue viability; assay type: cell-based; conditions: 48 hours, between 1 and 10 nM
Experimental: Immortalized Mouse Astrocytes—SV40T (IMA2.1), immortalized Mouse Microglia (SIM-A9) and immortalized neuroblastoma (SH-SY5Y) cells were infected for 48 hours with gingipains HRgpA and RgpB (arginine gingipains), and Kgp (lysine-specific cysteine proteinase—Lys-gingipain, KGP). After 48 hours the cells were assessed for viability with the AlamarBlue assay and the percentage of dead or alive cells versus control was plotted. […] As expected, since neither are dying, […]. […] Therefore, we expect the efficacious buntanetap dose to fight P. gingivalis infection to be the same as to treat Alzheimer's and Parkinson's disease has no impact on the microglia or neuroblastoma survival in the presence of gingipains.

[7] = system: neuroblastoma cells (SH-SY5Y); experiment: Gingipain-induced cell aggregation; assay type: cell-based; conditions: 24 hours RgpB (10 ug/ml), Kgp (10 ug/ml), or both, FIG. 11
[8] = system: APP/PS1 transgenic (tg) mouse model of AD; experiment: APP/PS1 transgenic mouse model of AD, memory, learning and synaptic transmission; assay type: in vivo
Description: (§2) Butanetap's efficacy in treating neurodegeneration in animal models: Restored memory and learning in an APP/PS1 transgenic (tg) mouse model of AD; Restored memory and learning in a Ts65dn mouse model of Down syndrome (DS) [W. Mobley, UCSD, submitted 2020]; Preserved the retina in acute glaucoma [J Sundstrom; Hershey Medical School]; Restored colonic motility in a human SNCAA53T tg mouse model of PD (Kuo et. al., Am J Neurodegener Dis 2019; 8(1):1-15 www.AJND.us/ISSN:216 591X/AJND0086080: Translational inhibition of α-synuclein by Butanetap (Posiphen) normalizes distal colon motility in transgenic Parkinson mice); Preserved memory and learning in traumatic brain injury rats (M-F Chesselet, submitted 2020).
(§3) Butanetap's reversal of the neurotoxic cascade: Butanetap's mechanism of action is related to APP, Tau, and aSYN expression being regulated by RP1 and by iron and the way these proteins contribute to neurodegeneration by accumulating as toxic aggregates that impair axonal transport and synaptic transmission, causing inflammation, and, finally, leading to nerve cell death (as described previously).

[9] = system: Ts65dn mouse model of Down syndrome (DS); experiment: Ts65dn mouse model of Down syndrome; assay type: in vivo; conditions: Ts65dn mice
Description: as §2

[10] = system: traumatic brain injury rats; experiment: Traumatic brain injury rats; assay type: in vivo, rat
Description: as §2, §3

[11] = system: fully differentiated Down syndrome nerve cells; experiment: Vesicle transport in Down syndrome nerve cells; assay type: cell-based
Description: as §3

[12] = system: neurotoxic aggregating proteins; experiment: Translation of neurotoxic aggregating proteins in healthy mouse brain; assay type: in vivo
Description: (§4) Therefore, the original data concerning the effects of butanetap working under all conditions is wrong. (See, e.g., Lahiri, et al., “The Experimental Alzheimer's Disease Drug butanetap [(+)-Phenserine] Lowers Amyloid-β Peptide Levels in Cell Culture and Mice”, J. Pharmacol. Ther. 320:386-396, 2007 (hereby incorporated by reference)). It only works in stressed cells, dividing cells and sick cells, e.g., those cells that have high levels of iron.

[13] = system: fully differentiated healthy resting nerve cells; experiment: Translation of neurotoxic aggregating proteins in differentiated nerve cells; assay type: cell-based
Description: as §4

[14] = cited from earlier work
[15] = system: human SNCAA53T tg mouse model of PD; conditions: SNCAA53T tg mice; cited from earlier work
[16] = system: neurotoxic aggregating proteins; experiment: Neurotoxic aggregating proteins in cerebral cortex of transgenic AD and PD animals

With `CN1CC[C@]2(C)c3cc(OC(=O)Nc4ccccc4)ccc3N(C)C12` (stereo partly drawn) [butanetap, (3aR)-1,3a,8-trimethyl-1,2,3,3a,8,8a-hexahydropyrrolo[2,3-b]indol-5-yl phenylcarbamate] as the compound, how does the “Brain levels in mice” value ([1]; dose 0.014 mg/kg) read?
The value was 0 ng/gram.

What about the “Brain levels in mice” value ([1]; dose 0.07 mg/kg) of the same compound?
The value was 0 ng/gram.

And the “Brain levels in mice” value ([1]; dose 0.143 mg/kg)?
Its value is 0 ng/gram.

And the “Brain levels in mice” value ([1]; dose 0.16 mg/kg)?
Its value is 0 ng/gram.

What about the “Brain levels in mice” value ([1]; dose 0.21 mg/kg) of the same compound?
Its value is 0 ng/gram.

What about the “Brain levels in mice” value ([1]; dose 0.23 mg/kg) of the same compound?
Its value is 0 ng/gram.

And the “Brain levels in mice” value ([1]; dose 0.29 mg/kg)?
The value was 0 ng/gram.

And the “Brain levels in mice” value ([1]; dose 0.34 mg/kg)?
The value was 0 ng/gram.

What about the “Brain levels in mice” value ([1]; dose 0.57 mg/kg) of the same compound?
The value was 0 ng/gram.

What about the “Brain levels in mice” value ([1]; dose 1 mg/kg) of the same compound?
The value was 16 ng/gram.

What about the “Brain levels in mice” value ([1]; dose 1.14 mg/kg) of the same compound?
Its value is 16.8 ng/gram.

And the “Brain levels in mice” value ([1]; dose 1.71 mg/kg)?
The value was 0 ng/gram.

What about the “Brain levels in mice” value ([1]; dose 2.13 mg/kg) of the same compound?
Its value is 31.2 ng/gram.

What about the “Brain levels in mice” value ([1]; dose 2.29 mg/kg) of the same compound?
The value was 0 ng/gram.

And the “Brain levels in mice” value ([1]; dose 3 mg/kg)?
The value was 48 ng/gram.

And the “Brain levels in mice” value ([1]; dose 5 mg/kg)?
The value was 80 ng/gram.

What about the “Brain levels in mice” value ([1]; dose 10 mg/kg) of the same compound?
Its value is 160 ng/gram.

And the “Brain levels in mice” value ([1]; dose 20 mg/kg)?
The value was 400 ng/gram.

What about the “Brain levels in mice” value ([1]; dose 30 mg/kg) of the same compound?
The value was 800 ng/gram.

And the “Brain levels in mice” value ([1]; dose 40 mg/kg)?
Its value is 1200 ng/gram.

What about the “Brain levels in mice” value ([1]; dose 50 mg/kg) of the same compound?
Its value is 1680 ng/gram.

What about the “Brain levels in mice” value ([1]; dose 60 mg/kg) of the same compound?
Its value is 2400 ng/gram.

What about the “Brain levels in mice” value ([1]; dose 80 mg/kg) of the same compound?
The value was 4800 ng/gram.

And the “Brain levels in mice” value ([1]; dose 100 mg/kg)?
The value was 8000 ng/gram.

What about the “concentration in brain relative to plasma” value [2] of the same compound?
The value was “about 8 times”.

What about the “aggregating proteins (APP/Aβ, tau/phospho-tau, alpha-synuclein) in CSF” value ([3]; MCI subjects, 10 days of administration, FIG. 8) of the same compound?
Its value is “normalized”.

What about the inflammation ([3]; human CSF of MCI subjects) of the same compound?
Its inflammation is “lowered”.

And the “dose found to be efficacious” value [4]?
The value was 1 nM.

What about the “aSYN in relation to Actin standard” value [5] of the same compound?
Its value is “lowers aSYN in vitro in a dose-dependent manner”.

And the “αSYN in the brain” value (αSYN)?
The value was “reduced”.

What about the “neuroblastoma survival in the presence of gingipains” value [6] of the same compound?
The value was “no impact”.

What about the gingipain-induced cell aggregation [7] of the same compound?
Its gingipain-induced cell aggregation is “blocks”.

And the memory and learning ([8]; APP/PS1 tg mice)?
The memory and learning was “Restored”.

What about the impaired synaptic transmission ([8]; hippocampus of APP/PS1 tg mice) of the same compound?
Its impaired synaptic transmission is “Normalized”.

And the memory and learning [9]?
Its memory and learning is “Restored”.

And the inflammation ([10]; rat brain after TBI)?
The inflammation was “lowered”.

And the impaired synaptic transmission ([10]; rat striatum after TBI)?
Its impaired synaptic transmission is “Normalized”.

What about the nerve cells ([10]; rat substantia nigra after TBI) of the same compound?
The nerve cells was “protected”.

What about the memory and learning ([10]; traumatic brain injury rats) of the same compound?
The memory and learning was “Preserved”.

What about the “anterograde and retrograde vesicle transport” value [11] of the same compound?
The value was “Normalized”.

And the “translation of neurotoxic aggregating proteins” value [12]?
Its value is “does not inhibit”.

And the “translation of neurotoxic aggregating proteins” value [13]?
The value was “does not inhibit”.

What about the tolerability ([14]; doses up to 4×60 mg daily×10 days) of the same compound?
The tolerability was “well tolerated”.

What about the terminal half-life ([14]; plasma, all doses) of the same compound?
Its terminal half-life is 4.3 to 4.7 h.

What about the colonic motility [15] of the same compound?
The colonic motility was “Restored”.

And the neurotoxic aggregating proteins [16]?
The neurotoxic aggregating proteins was “not inhibit”.
